Reference: publication PMC11003488 (Journal of Enzyme Inhibition and Medicinal Chemistry, 2023)
Several values for one entry are separate records, joined by “and”; a condition that tells them apart may be missing. Identical values can stand only once. Like-named read-outs stand apart in the source and are kept apart here.

Tests used:
HL-60(TB) = assay: cells; format: cell-based; details: Homo sapiens
MOLT-4 = assay: NCI-60 SRB growth inhibition, one-dose and five-dose; format: cell-based; details: Homo sapiens
RPMI-8226 = assay: as above; format: cell-based; details: Homo sapiens
EKVX = assay: as above; format: cell-based; details: Homo sapiens
NCI-H23 = assay: as above; format: cell-based; details: Homo sapiens
KM12 = assay: as above; format: cell-based; details: Homo sapiens
SW-620 = assay: as above; format: cell-based; details: Homo sapiens
U251 = assay: as above; format: cell-based; details: Homo sapiens
M14 = assay: as above; format: cell-based; details: Homo sapiens
SK-MEL-28 = assay: as above; format: cell-based; details: Homo sapiens
UACC-257 = assay: as above; format: cell-based; details: Homo sapiens
OVCAR-8 = assay: as above; format: cell-based; details: Homo sapiens, OVCAR-8, read-out: percent growth inhibition
SK-OV-3 = assay: as above; format: cell-based; details: Homo sapiens
SN12C = assay: as above; format: cell-based; details: Homo sapiens
TK-10 = assay: as above; format: cell-based; details: Homo sapiens
UO-31 = assay: as above; format: cell-based; details: Homo sapiens, UO-31
PC-3 = assay: as above; format: cell-based; details: Homo sapiens
MDA-MB-231/ATCC = assay: as above; format: cell-based; details: Homo sapiens, MDA-MB-231
MDA-MB-468 = assay: as above; format: cell-based; details: Homo sapiens
Leukaemia cell lines = assay: NCI-60 SRB growth inhibition, subpanel; format: cell-based, human; details: Homo sapiens
NSCLC cell lines = assay: NCI-60 SRB growth inhibition, subpanel; format: cell-based, human; details: for GI50: Homo sapiens
Colon cancer cell lines = assay: NCI-60 SRB growth inhibition, subpanel; format: cell-based, human; details: for GI50: Homo sapiens
CNS cancer cell lines = assay: NCI-60 SRB growth inhibition, subpanel; format: cell-based, human; details: for GI50: Homo sapiens
Melanoma cell lines = assay: NCI-60 SRB growth inhibition, subpanel; format: cell-based, human; details: for GI50: Homo sapiens
[1] = system: Ovarian cancer cell lines; assay: NCI-60 SRB growth inhibition, subpanel; format: cell-based, human; details: for GI50: Homo sapiens
Renal cancer cell lines = assay: NCI-60 SRB growth inhibition, subpanel; format: cell-based, human; details: for GI50: Homo sapiens
[2] = system: Prostate cancer cell lines; assay: NCI-60 SRB growth inhibition, subpanel; format: cell-based, human; details: for GI50: Homo sapiens
Breast cancer cell lines = assay: NCI-60 SRB growth inhibition, subpanel; format: cell-based, human; details: for GI50: Homo sapiens
[3] = Cytotoxicity towards normal fibroblasts, safety index; format: cell-based, human; details: human, WI-38 normal fibroblast cells
[4] = system: WI-38 normal human fibroblast cells; assay: as above; format: cell-based; details: WI-38 versus cancer cell lines
Human VEGFR-2 = Human VEGFR-2 (Homo sapiens, UniProt P35968); assay: VEGFR-2 inhibition assay; format: biochemical
HCT-116 (colon cancer) [5] = assay: Apoptosis AV/PI assay by flow cytometry; format: cell-based, human; details: HCT-116, 24 h, IC50 of compound
HCT-116 (colon cancer) [6] = assay: Cell cycle analysis by PI flow cytometry; format: cell-based, human; details: HCT-116, 24 h, IC50 of compound
Caspase-3 [7] = assay: Protein level by ELISA assay in HCT-116; format: cell-based, human; details: HCT-116, IC50 of compound, 24 h, vs 0.1% DMSO
Bax [8] = assay: Protein level by ELISA assay in HCT-116; format: cell-based, human; details: HCT-116, IC50 of compound, 24 h, vs 0.1% DMSO
Caspase-3 [9] = assay: Gene expression by RT-qPCR in HCT-116; details: HCT-116, 24 h, IC50 of compound; vs 0.1% DMSO; 2^-ΔΔct
Bax [10] = assay: Gene expression by RT-qPCR in HCT-116; details: HCT-116, 24 h
TNF-α = assay: Gene expression by RT-qPCR in HCT-116; details: HCT-116, 24 h, IC50 of compound; vs 0.1% DMSO; 2^-ΔΔct
[11] = read-out: percent growth inhibition

Chain of Human VEGFR-2 (P35968 20-1356): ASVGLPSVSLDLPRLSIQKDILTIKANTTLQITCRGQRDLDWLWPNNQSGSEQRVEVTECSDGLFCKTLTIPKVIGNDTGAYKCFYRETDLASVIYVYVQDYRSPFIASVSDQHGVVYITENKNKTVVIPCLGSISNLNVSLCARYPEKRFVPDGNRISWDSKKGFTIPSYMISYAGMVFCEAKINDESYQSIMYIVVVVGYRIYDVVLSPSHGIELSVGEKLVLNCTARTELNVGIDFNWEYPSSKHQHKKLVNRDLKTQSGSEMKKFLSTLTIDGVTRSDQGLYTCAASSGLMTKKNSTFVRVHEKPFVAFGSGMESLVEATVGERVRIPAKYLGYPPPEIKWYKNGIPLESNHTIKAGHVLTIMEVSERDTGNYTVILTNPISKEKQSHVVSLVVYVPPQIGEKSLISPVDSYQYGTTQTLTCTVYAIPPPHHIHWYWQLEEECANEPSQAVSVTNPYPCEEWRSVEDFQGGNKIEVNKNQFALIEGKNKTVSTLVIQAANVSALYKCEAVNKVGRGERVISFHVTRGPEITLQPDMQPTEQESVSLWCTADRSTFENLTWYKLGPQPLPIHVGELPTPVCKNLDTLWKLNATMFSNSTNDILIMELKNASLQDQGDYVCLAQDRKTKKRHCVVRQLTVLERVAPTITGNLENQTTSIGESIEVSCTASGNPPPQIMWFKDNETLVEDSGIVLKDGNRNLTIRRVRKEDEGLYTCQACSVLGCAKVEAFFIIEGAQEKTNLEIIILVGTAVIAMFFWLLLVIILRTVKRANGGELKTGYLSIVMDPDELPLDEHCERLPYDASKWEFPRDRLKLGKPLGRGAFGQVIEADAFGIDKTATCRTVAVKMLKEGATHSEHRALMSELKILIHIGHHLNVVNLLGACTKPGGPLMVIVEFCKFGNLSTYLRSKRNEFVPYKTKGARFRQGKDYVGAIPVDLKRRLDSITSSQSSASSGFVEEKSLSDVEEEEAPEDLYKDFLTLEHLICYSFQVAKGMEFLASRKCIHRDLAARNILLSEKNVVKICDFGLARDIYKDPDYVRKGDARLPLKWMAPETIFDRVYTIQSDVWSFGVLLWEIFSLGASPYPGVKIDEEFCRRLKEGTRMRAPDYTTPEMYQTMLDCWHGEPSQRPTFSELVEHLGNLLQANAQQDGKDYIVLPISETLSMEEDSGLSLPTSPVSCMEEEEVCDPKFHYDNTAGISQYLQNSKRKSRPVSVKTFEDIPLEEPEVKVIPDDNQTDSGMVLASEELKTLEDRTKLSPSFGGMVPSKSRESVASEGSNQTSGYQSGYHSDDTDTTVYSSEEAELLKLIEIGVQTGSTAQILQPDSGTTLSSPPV

O=C(/C=C/c1cccnc1)c1cccc(NCc2ccc(CO)cc2)c1 [Compound 5e, (E)-1–(3-((4-(hydroxymethyl)benzyl)amino)phenyl)-3-(pyridin-3-yl)prop-2-en-1-one]
GI50 (HL-60(TB); HL-60): 4.23 µM
inhibition at 10 µM (HL-60(TB); HL-60, read-out: percent growth inhibition): 118%
GI50 (MOLT-4; MOLT-4): 2.69 µM
inhibition at 10 µM (MOLT-4; MOLT-4, read-out: percent growth inhibition): 120%
GI50 (RPMI-8226; RPMI-8226): 2.27 µM
inhibition at 10 µM (RPMI-8226; RPMI-8226, read-out: percent growth inhibition): 133%
GI50 (EKVX): 13.7 µM
inhibition at 10 µM (EKVX; [11]): 56.8%
GI50 (NCI-H23; NCI-H23): 12.9 µM
inhibition at 10 µM (NCI-H23; NCI-H23, read-out: percent growth inhibition): 79.3%
GI50 (KM12; KM12): 7.91 µM
inhibition at 10 µM (KM12; KM12, read-out: percent growth inhibition): 189%
GI50 (SW-620; SW-620): 2.06 µM
inhibition at 10 µM (SW-620; SW-620, read-out: percent growth inhibition): 140%
GI50 (U251; U-251): 4.94 µM
inhibition at 10 µM (U251; U-251, read-out: percent growth inhibition): 146%
GI50 (M14; M14): 12.4 µM
inhibition at 10 µM (M14; M14, read-out: percent growth inhibition): 91.9%
GI50 (SK-MEL-28; SK-MEL-28): 13.6 µM
inhibition at 10 µM (SK-MEL-28; SK-MEL-28, read-out: percent growth inhibition): 121%
GI50 (UACC-257; UACC-257): 14.7 µM
inhibition at 10 µM (UACC-257; UACC-257, read-out: percent growth inhibition): 61.4%
inhibition at 10 µM (OVCAR-8): 97.2%
GI50 (SK-OV-3; SK-OV-3): 15.8 µM
inhibition at 10 µM (SK-OV-3; SK-OV-3, read-out: percent growth inhibition): 0.04%
GI50 (SN12C): 12.3 µM
inhibition at 10 µM (SN12C; [11]): 94.4%
GI50 (TK-10; TK-10): 15 µM
inhibition at 10 µM (TK-10; TK-10, read-out: percent growth inhibition): 30.6%
GI50 (UO-31): 11.2 µM
GI50 (PC-3; PC-3): 11.6 µM
inhibition at 10 µM (PC-3; PC-3, read-out: percent growth inhibition): 62.6%
GI50 (MDA-MB-231/ATCC): 3.75 µM
GI50 (MDA-MB-468; MDA-MB-468): 4 µM
inhibition at 10 µM (MDA-MB-468; MDA-MB-468, read-out: percent growth inhibition): 153%
GI50 (Leukaemia cell lines; read-out: GI50 MG-MID): 3.29 µM
GI50 (Leukaemia cell lines; read-out: MG-MID GI50): 3.29 µM
GI50 (NSCLC cell lines; read-out: GI50 MG-MID): 13.6 µM
GI50 (NSCLC cell lines; read-out: MG-MID GI50): 13.6 µM
SI (Selectivity Index) (NSCLC cell lines; full panel MG-MID / NSCLC subpanel MG-MID): 0.73
GI50 (Colon cancer cell lines; read-out: GI50 MG-MID): 6.42 µM
GI50 (Colon cancer cell lines; read-out: MG-MID GI50): 6.42 µM
SI (Selectivity Index) (Colon cancer cell lines; full panel MG-MID / Colon Cancer subpanel MG-MID): 1.55
GI50 (CNS cancer cell lines; read-out: GI50 MG-MID): 12.2 µM
GI50 (CNS cancer cell lines; read-out: MG-MID GI50): 12.2 µM
SI (Selectivity Index) (CNS cancer cell lines; full panel MG-MID / CNS Cancer subpanel MG-MID): 0.82
GI50 (Melanoma cell lines; read-out: GI50 MG-MID): 10.6 µM
GI50 (Melanoma cell lines; read-out: MG-MID GI50): 10.6 µM
SI (Selectivity Index) (Melanoma cell lines; full panel MG-MID / Melanoma subpanel MG-MID): 0.94
GI50 ([1]; read-out: GI50 MG-MID): 11.2 µM
GI50 ([1]; read-out: MG-MID GI50): 11.2 µM
SI (Selectivity Index) ([1]; full panel MG-MID / Ovarian Cancer subpanel MG-MID): 0.89
GI50 (Renal cancer cell lines; read-out: GI50 MG-MID): 13 µM
GI50 (Renal cancer cell lines; read-out: MG-MID GI50): 13 µM
SI (Selectivity Index) (Renal cancer cell lines; full panel MG-MID / Renal Cancer subpanel MG-MID): 0.77
GI50 ([2]; read-out: GI50 MG-MID): 12.2 µM
GI50 ([2]; read-out: MG-MID GI50): 12.2 µM
SI (Selectivity Index) ([2]; full panel MG-MID / Prostatic Cancer subpanel MG-MID): 0.82
GI50 (Breast cancer cell lines; read-out: GI50 MG-MID): 7.2 µM
GI50 (Breast cancer cell lines; read-out: MG-MID GI50): 7.2 µM
SI (Selectivity Index) (Breast cancer cell lines; full panel MG-MID / Breast Cancer subpanel MG-MID): 1.38
GI50 at 48 h [3]: > 100 µM
Safety index [4]: >1
IC50 (Human VEGFR-2): 0.37 ± 0.012 µM
% Early apoptotic cells (LR) (HCT-116 (colon cancer) [5]): 0.05 ± 0.001%
% Late apoptotic cells (UL) (HCT-116 (colon cancer) [5]): 94.74 ± 8.9%
% Necrotic cells (UR) (HCT-116 (colon cancer) [5]): 2.71 ± 0.33%
% Viable cells (LL) (HCT-116 (colon cancer) [5]): 2.50 ± 0.12%
% G0-G1 (HCT-116 (colon cancer) [6]): 30.02 ± 7.1%
% G2M (HCT-116 (colon cancer) [6]): 10.42 ± 1.7%
% S (HCT-116 (colon cancer) [6]): 10.55 ± 3.5%
% SubG0-G1 (HCT-116 (colon cancer) [6]): 49.01 ± 7.2%
caspase-3 protein level (Caspase-3 [7]): 58.44 fold
Bax protein level (Bax [8]): 3.14 fold
Caspase-3 gene expression fold change (Caspase-3 [9]): 2.28 ± 0.14 fold
Bax gene expression fold change (Bax [10]; IC50 of compound, vs 0.1% DMSO, 2^-ΔΔct): 5 fold and 5.00 ± 1.1 fold
Bax/Bcl-2 ratio (Bax [10]; ratio of gene expression fold changes): 4.5
TNF-α gene expression fold change (TNF-α): 372 fold and 372.22 ± 10.8 fold
